Laboratory results reported in US9115159B2, “Phosphate compounds, a process for their preparation and pharmaceutical compositions containing them” (LES LABORATOIRES SERVIER, priority 2013, dated 2015).
“And” between values parts separate entries of the source, which are not always exact repeats. Equal entries are not always repeated. Values belong to the molecule of their own block, whether it stands above or below them.

Experiments:
[1] = Solubility in aqueous medium buffered to physiological pH (phosphate 0.33M, pH 7.4); type: physicochemical; conditions: phosphate 0.33M, pH = 7.4
Experimental: (§1) The solubilities of the compounds were also measured in a medium buffered to physiological pH (cf. Table 3).

[2] = system: human Caco-2 cells; experiment: In vitro test on human Caco-2 cells, cellular transport A to B; type: in vitro ADME; conditions: prodrug incubated, 120 minutes; for Yield (experiment yield), the drug after incubation of the prodrug / Fabs (predicted absorbed fraction in humans), the drug after incubation of the prodrug: corresponding drug measured; for Fabs (predicted absorbed fraction in humans), the drug after incubation of the prodrug: 1 or 3 μM; for Yield (experiment yield), compound measured: the prodrug itself: total amount found at the end versus incubated
Experimental: The cellular transport from A to B (Apical to Basolateral) of the phosphate compounds of formula (I) and the compounds of formula (I′) (corresponding drugs) is studied in human Caco-2 cells. Each compound is deposited apically at 1 or 3 μM (in duplicate) and then incubated for 120 minutes.
Several samples are taken during the experiment; • apically: immediately after deposition (t=0) and at 120 minutes • basolaterally: at the end of the experiment (120 minutes)
The concentrations of the phosphate compound (prodrug) and/or of its hydroxylated homologue (drug) are determined by liquid chromatography coupled with mass spectrometric detection (LC-MS/MS). The limit of quantification for both entities is 2 ng/mL.
The apparent permeability (Papp) and the predicted absorbed fraction (Fabs) in humans are calculated for the prodrug, for the drug after incubation of the prodrug and for the drug after incubation of the drug (Hubatsch et al, Nat Protoc. 2007; 2(9), 2111-2119).
The experiment yield, which corresponds to the ratio (in percent) of the total amount of compound found at the end of the experiment versus that incubated, is also calculated.

[3] = system: cleaved (activated) form of caspase 3; experiment: Quantification of the cleaved form of caspase 3 in vivo (MSD ELISA, RS4;11 xenograft tumour lysates); design: species or system mice (SCID strain); conditions: sampling time 2 hours, treated versus control mice
Experimental: The ability of the compounds of formula (I′) to activate caspase 3 is evaluated in a xenograft model of RS4;11 leukaemia cells.
1×10^7 RS4;11 cells are grafted sub-cutaneously into immunosuppressed mice (SCID strain). 25 to 30 days after the graft, the animals are treated orally with the various compounds. After treatment, the tumour masses are recovered and lysed, and the cleaved (activated) form of caspase 3 is quantified in the tumour lysates.
The quantification is carried out using the “Meso Scale Discovery (MSD) ELISA platform” test, which specifically assays the cleaved form of caspase 3. It is expressed in the form of an activation factor corresponding to the ratio between the quantity of cleaved caspase 3 in the treated mice divided by the quantity of cleaved caspase 3 in the control mice.
The ability of the compounds of formula (I) to activate caspase 3 is evaluated in a xenograft model of RS4;11 leukaemia cells in accordance with the protocol given in Example A2.

[4] = Pharmacokinetic profile / in vivo conversion after oral administration to SCID mice (plasma, LC-MS/MS); design: species or system female SCID mice
Experimental: The pharmacokinetic profile of the phosphate compounds of formula (I) is evaluated in a lipid formulation and in aqueous solution in female SCID mice. This is compared to the pharmacokinetic profile of compounds of formula (I′) in a lipid formulation. More specifically, 4-[{[3-(6-{[(3S)-3-(morpholin-4-ylmethyl)-3,4-dihydroisoquinolin-2(1H)-yl]-carbonyl}-1,3-benzodioxol-5-yl)-5,6,7,8-tetrahydroindolizin-1-yl]carbonyl}(phenyl)-amino]phenyl disodium phosphate (also referred to as the compound of Example 1) was tested and compared to N-(4-hydroxyphenyl)-3-{6-[((3S)-3-(4-morpholinylmethyl)-3,4-dihydro-2(1H)-isoquinolinyl)carbonyl]-1,3-benzodioxol-5-yl}-N-phenyl-5,6,7,8-tetrahydro-1-indolizine carboxamide (also referred to as the drug from Example 1).
The compound of Example 1 is prepared in a mixture of anhydrous ethanol/polyethylene glycol 300/water (10/40/50, v/v/v) intended for administration by the p.o. route. The study is carried out in 2 groups of SCID mice to which the compound of Example 1 is administered under the following conditions: • Group 1: 3 mg/kg p.o. (gavage, 10 mL/kg), • Group 2: 25 mg/kg p.o. (gavage, 10 mL/kg).
Blood samples are taken at the following points in time (3 samples per animal and 3 animals for each point in time): 0.25 hr, 0.5 hr, 1 hr, 2 hrs, 6 hrs and 24 hrs after oral administration.
The compound of Example 1 is also administered by the oral route in an aqueous medium to SCID mice, under the following conditions: • Group 1: 30 mg/kg p.o. dissolved in 1 mM sodium carbonate solution (gavage, 10 mL/kg), • Group 2: 100 mg/kg p.o. in water (gavage, 10 mL/kg).
Blood samples are taken at the following points in time (3 animals for each point in time and 1 sample per animal): 0.25 hr, 0.5 hr, 1 hr, 2 hrs, 4 hrs, 6 hrs and 24 hrs after oral administration.
For all formulations of the compound of Example 1, the blood thereby collected is centrifuged and the plasma is transferred to tubes containing 1M hydrochloric acid. The plasma concentrations of the phosphate compound (prodrug) and its hydroxylated homologue (drug) are determined simultaneously using a method of liquid chromatography coupled with mass spectrometric detection (TFC-LC-MS/MS). The limit of detection for both entities is 0.5 ng/mL.
The drug from Example 1 is prepared in a mixture of anhydrous ethanol/polyethylene glycol 300/water (10/40/50, v/v/v) intended for administration by the p.o. route. The study is carried out in several groups of SCID mice to which the drug from Example 1 is administered under the following conditions: • Group 1: 3 mg/kg p.o. (gavage, 10 mL/kg), • Group 2: 30 mg/kg p.o. (gavage, 10 mL/kg), • Group 3: 25 mg/kg p.o. (gavage, 10 mL/kg), • Group 4: 100 mg/kg p.o. (gavage, 10 mL/kg).
Blood samples are taken at the following points in time (3 animals for each point in time and 3 samples per animal for Groups 1-2 and 1 sample per animal for Groups 3 and 4): • p.o.: before administration and then 0.25 hr, 0.5 hr, 0.75 hr, 1 hr, 2 hrs, 4 hrs, 6 hrs, 8 hrs, 16 hrs and 24 hrs after oral administration at 3 and 30 mg/kg, • p.o.: 0.5 hr, 2 hrs, 6 hrs, 16 hrs and 24 hrs after oral administration at 25 mg/kg and 0.5 hr, 1 hr, 2 hrs, 6 hrs, 16 hrs, 30 hrs and 48 hrs after oral administration at 100 mg/kg.
The plasma from the blood samples collected after administration of the lipid formulations of the drug from the compound of Example 1 are analysed by liquid chromatography coupled with mass spectrometric detection. The limit of quantification of the drug from the compound of Example 1 is less than or equal to 0.5 ng/mL.
Non-compartmental pharmacokinetic analysis is carried out on the mean values of the plasma concentrations of the compounds tested. […]

[5] = Solubility in water; type: physicochemical
Experimental: The solubility of compounds of formula (I) in water was measured and compared with that of compounds of formula (I′).
More specifically, 4-[{[3-(6-{[(3S)-3-(morpholin-4-ylmethyl)-3,4-dihydroisoquinolin-2(1H)-yl]carbonyl}-1,3-benzodioxol-5-yl)-5,6,7,8-tetrahydroindolizin-1-yl]carbonyl}-(phenyl)amino]phenyl disodium phosphate (also referred to as the compound of Example 1) was tested and compared to N-(4-hydroxyphenyl)-3-{6-[((3S)-3-(4-morpholinylmethyl)-3,4-dihydro-2(1H)-isoquinolinyl)carbonyl]-1,3-benzodioxol-5-yl}-N-phenyl-5,6,7,8-tetrahydro-1-indolizine carboxamide (also referred to as the drug from Example 1).
as §1

[6] = Example 1 administered 3 mg/kg p.o., lipid formulation
[7] = Example 1 administered 25 mg/kg p.o., lipid formulation
[8] = Example 1 administered 30 mg/kg p.o., aqueous formulation (1 mM sodium carbonate solution)
[9] = Example 1 administered 100 mg/kg p.o., aqueous formulation (in water)

SMILES: O=C(c1cc(-c2cc3c(cc2C(=O)N2Cc4ccccc4C[C@H]2CN2CCOCC2)OCO3)n2c1CCCC2)N(c1ccccc1)c1ccc(OP(=O)([O-])[O-])cc1.[Na+].[Na+] [Example 1, 4-[{[3-(6-{[(3S)-3-(Morpholin-4-ylmethyl)-3,4-dihydroisoquinolin-2(1H)-yl]carbonyl}-1,3-benzodioxol-5-yl)-5,6,7,8-tetrahydroindolizin-1-yl]carbonyl}(phenyl)amino]phenyl disodium phosphate]
Solubility at 10 μM ([1]; 10 μM): Soluble | Solubility at 20 μM ([1]; 20 μM): Soluble | Solubility at 50 μM ([1]; 50 μM): Soluble | Solubility at 100 μM ([1]; 100 μM): Soluble | Yield (experiment yield), the drug after incubation of the prodrug [2]: Yield (%) = 42 | Fabs (predicted absorbed fraction in humans), the drug after incubation of the prodrug ([2]; A to B): Fabs (%) = 71 | Papp, compound measured: the prodrug itself ([2]; A to B, deposited apically at 1 or 3 μM): Papp (10^−6 cm/s) = 0.01 | Yield (experiment yield), compound measured: the prodrug itself [2]: Yield (%) = 0 | Activation factor +/− S.E.M. ([3]; Table 2, 50 mg/kg oral): 21.2 +/− 1.3 | AUCt, compound measured: Example 1 [4, 6]: AUCt (ng · h/mL) = 5 | Tmax, compound measured: Example 1 [4, 6]: Tmax (h) = 0.25 | Cmax, compound measured: Example 1 ([4]; Example 1 administered 3 mg/kg p.o., lipid formulation (ethanol/PEG 300/water 10/40/50)): Cmax (ng/mL) = 16 | AUCt, compound measured: Example 1 [4, 7]: AUCt (ng · h/mL) = 92 | Cmax, compound measured: Example 1 [4, 7]: Cmax (ng/mL) = 244 | Tmax, compound measured: Example 1 [4, 7]: Tmax (h) = 0.25 | AUCt, compound measured: Example 1 [4, 8]: AUCt (ng · h/mL) = 879 | Cmax, compound measured: Example 1 [4, 8]: Cmax (ng/mL) = 391 | Tmax, compound measured: Example 1 [4, 8]: Tmax (h) = 1.0 | AUCt, compound measured: Example 1 [4, 9]: AUCt (ng · h/mL) = 797 | Cmax, compound measured: Example 1 [4, 9]: Cmax (ng/mL) = 359 | Tmax, compound measured: Example 1 [4, 9]: Tmax (h) = 2.0 | solubility in water [5]: greater than or equal to 10 mg/mL and ≥ 12.6 mM

Yield (experiment yield), the drug after incubation of the prodrug [2]: Yield (%) = 100 | Fabs (predicted absorbed fraction in humans), the drug after incubation of the prodrug ([2]; A to B): Fabs (%) = 19 | Yield (experiment yield), compound measured: the prodrug itself [2]: Yield (%) = 0.83
SMILES: Cc1c(C(=O)N(c2ccc(OP(=O)([O-])[O-])cc2)c2cc(C#N)n(C)c2)cc(-c2cc(Cl)ccc2C(=O)N2Cc3ccccc3C[C@H]2CN2CCOCC2)n1C.[Na+].[Na+] [Example 21, 4-[{[5-(5-Chloro-2-{[(3S)-3-(morpholin-4-ylmethyl)-3,4-dihydroisoquinolin-2(1H)-yl]carbonyl}phenyl)-1,2-dimethyl-1H-pyrrol-3-yl]carbonyl}(5-cyano-1-methyl-1H-pyrrol-3-yl)amino]phenyl disodium phosphate]
Activation factor +/− S.E.M. ([3]; Table 2, 25 mg/kg oral): 55.2 +/− 6.2

SMILES: Cc1c(C(=O)N(c2ccc(OP(=O)([O-])[O-])cc2)c2cnn(C)c2)cc(-c2cc(Cl)ccc2C(=O)N2Cc3ccccc3C[C@H]2CN2CCOCC2)n1C.[Na+].[Na+] [Example 24, 4-[{[5-(5-Chloro-2-{[(3S)-3-(morpholin-4-ylmethyl)-3,4-dihydroisoquinolin-2(1H)-yl]carbonyl}phenyl)-1,2-dimethyl-1H-pyrrol-3-yl]carbonyl}(1-methyl-1H-pyrazol-4-yl)amino]phenyl disodium phosphate]
Activation factor +/− S.E.M. ([3]; Table 2, 25 mg/kg oral): 60.5 +/− 4.5
